Measured values reported in patent US10966426B2, “Herbicidal compositions comprising phenylpyrimidines” (BASF SE, priority 2016, dated 2021).
Where two headings read alike, the source gives them in different places.

Experiments:
Type in all cases: in vivo
Stellaria media [1] = test: greenhouse pre-emergence treatment, STEME; details: 20 DAT
In short: (§1)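 Pre-emergence spray of compounds, alone or as combinations formulated as 10% emulsion concentrate in water, directly after sowing in loamy sand (~3.0% humus); pots hooded until rooting, kept at 10-25° C or 20-35° C per species for 2 to 4 weeks. Damage scored 0-100 (100 = no emergence/complete destruction); Colby expected value E=X+Y−(X·Y/100).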

Apera spica-venti [2] = test: greenhouse pre-emergence treatment, APESV; details: 20 DAT
In short: as §1

Galium aparine = test: greenhouse post-emergence treatment, GALAP; details: Galium aparine, 480 h, GALAP, 20 DAT
In short: (§2)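 Visual herbicidal effect (0–100) recorded over a 2 to 4 week test period after foliar treatment at plant heights of 3 to 15 cm. Expected combination effects derived by the Colby formula from single-component effects X and Y.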

Alopecurus myosuroides [3] = test: greenhouse pre-emergence treatment, ALOMY; details: 20 DAT
In short: as §1

Apera spica-venti [4] = test: greenhouse post-emergence treatment, APESV; details: APESV, 20 DAT
In short: (§3)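 Seeds sown per species in pots of loamy sand; seedlings either grown in place or transplanted days before treatment. Post-emergence spray of water-based liquor at 3–15 cm height. Injury rated 0–100 over 2 to 4 weeks.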

Papaver rhoeas = test: greenhouse pre-emergence treatment, PAPRH; details: 20 DAT
In short: as §1

Echinocloa crus-galli [5] = test: greenhouse post-emergence treatment, ECHCG; details: 20 DAT
In short: as §2

Echinocloa crus-galli [6] = test: greenhouse pre-emergence treatment, ECHCG; details: 20 DAT
In short: as §1

Alopecurus myosuroides [7] = test: greenhouse post-emergence treatment, ALOMY; details: Alopecurus myosuroides, 480 h, ALOMY, 20 DAT
In short: (§4)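 Plants were grown in pots of loamy sand with approximately 3.0% humus, either sown directly or transplanted as seedlings a few days before treatment, and sprayed with water-based treatments. They were kept at 10-25° C. or 20-35° C. depending on species and rated visually after 2 to 4 weeks on a 0–100 scale (100 = no emergence or complete destruction of above-ground parts).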

Helianthus annuus = test: greenhouse post-emergence treatment, HELAN; details: for % activity: cinmethylin solo (EC 750 g/l), 21 DAT
Description: The culture containers used were plastic pots containing loamy sand with approximately 3.0% of humus as substrate. The seeds of the test plants were sown separately for each species.
For the post-emergence treatment, the test plants were grown to a plant height of from 3 to 15 cm, depending on the plant habit, and only then treated with the active compounds which had been suspended or emulsified in water. To this end, the test plants were either sown directly, and grown in the same containers, or they were first grown separately as seedlings and transplanted into the test containers a few days prior to treatment.
Depending on the species, the plants were kept at 10-25° C. and 20-35° C., respectively.
The test period extended over 2 to 4 weeks. During this time, the plants were tended and their response to the individual treatments was evaluated.
Evaluation was carried out using a scale from 0 to 100. 100 means no emergence of the plants, or complete destruction of at least the above-ground parts, and 0 means no damage or normal course of growth. A good herbicidal activity is given at values of at least 70, and very good herbicidal activity is given at values of at least 85.
The respective stated components A and B, and if appropriate, C were formulated as a 10% by weight strength emulsion concentrate and, with addition of the amount of solvent system, introduced into the spray liquor used for applying the active compound. In the examples, the solvent used was water.
In the examples below, using the method of S. R. Colby (1967) “Calculating synergistic and antagonistic responses of herbicide combinations”, Weeds 15, p. 22ff., the value E, which is expected if the activity of the individual active compounds is only additive, was calculated. E=X+Y−(X·Y/100) where X=effect in percent using herbicide A at an application rate a; • Y=effect in percent using herbicide B at application rate b; • E=expected effect (in %) of herbicide A+herbicide B at application rates a+b.

Polygonum convolvulus = test: greenhouse pre-emergence treatment, POLCO; details: Fallopia convolvulus, 480 h, 20 DAT, POLCO
In short: as §1

Setaria viridis = test: greenhouse pre-emergence treatment, SETVI; details: Setaria viridis, 480 h, 31.25 gai/ha (EC 750 g/l), 20 DAT, SETVI, Table X1, read-out: % activity, solo application
In short: as §1

Digitaria sanguinalis = test: greenhouse post-emergence treatment, DIGSA; details: Digitaria sanguinalis, read-out: % activity
In short: as §4

Stellaria media [8] = test: greenhouse post-emergence treatment, STEME; details: Stellaria media
In short: as §3

Cc1ccc(NC(=O)N(C)C)cc1Cl [chlorotoluron]
% activity (Stellaria media [1]; chlorotoluron solo 250 gai/ha): 65% | % activity (Apera spica-venti [2]; chlorotoluron solo 62.5 gai/ha): 55% | % activity (Apera spica-venti [2]; chlorotoluron solo 250 gai/ha): 65% | % activity (Apera spica-venti [2]; chlorotoluron solo 500 gai/ha): 65% | pest or weed control at 250 g/ha (Galium aparine; chlorotoluron solo 250 gai/ha): 65% | pest or weed control at 500 g/ha (Galium aparine; chlorotoluron solo 500 gai/ha): 70% | % activity (Alopecurus myosuroides [3]; chlorotoluron solo 62.5 gai/ha): 0% | % activity (Alopecurus myosuroides [3]; chlorotoluron solo 125 gai/ha): 0% | % activity (Alopecurus myosuroides [3]; chlorotoluron solo 250 gai/ha): 0% | % activity (Apera spica-venti [4]; chlorotoluron solo 62.5 gai/ha): 25% | % activity (Apera spica-venti [4]; chlorotoluron solo 125 gai/ha): 55% | % activity (Papaver rhoeas; chlorotoluron solo 62.5 gai/ha): 0% | % activity (Papaver rhoeas; chlorotoluron solo 500 gai/ha): 90% | % activity (Echinocloa crus-galli [5]; ECHCG, chlorotoluron solo 500 gai/ha): 65% | % activity (Echinocloa crus-galli [6]; chlorotoluron solo 62.5 gai/ha): 0% | % activity (Echinocloa crus-galli [6]; chlorotoluron solo 125 gai/ha): 0% | % activity (Echinocloa crus-galli [6]; chlorotoluron solo 250 gai/ha): 35% | % activity (Echinocloa crus-galli [6]; chlorotoluron solo 500 gai/ha): 25% | pest or weed control at 125 g/ha (Alopecurus myosuroides [7]; chlorotoluron solo 125 gai/ha, read-out: % activity): 30% | pest or weed control at 250 g/ha (Alopecurus myosuroides [7]; chlorotoluron solo 250 gai/ha, read-out: % activity): 40% | pest or weed control at 500 g/ha (Alopecurus myosuroides [7]; chlorotoluron solo 500 gai/ha): 65%

Cc1ccccc1CO[C@@H]1C[C@@]2(C(C)C)CC[C@]1(C)O2 (racemic) [cinmethylin]
% activity (Helianthus annuus; 62.5 gai/ha, HELAN): 30% | % activity (Helianthus annuus; 500 gai/ha, HELAN): 60% | inhibition at 31.25 g/ha (Polygonum convolvulus; 31.25 gai/ha (EC 750 g/l), Table X1, read-out: % activity, solo application): 0% | inhibition at 62.5 g/ha (Polygonum convolvulus; 62.5 gai/ha (EC 750 g/l), Table X1, read-out: % activity, solo application): 0% | inhibition at 125 g/ha (Polygonum convolvulus; 125 gai/ha (EC 750 g/l), Table X1, read-out: % activity, solo application): 0% | inhibition at 250 g/ha (Polygonum convolvulus; 250 gai/ha (EC 750 g/l), Table X1, read-out: % activity, solo application): 0% | inhibition at 31.25 g/ha (Setaria viridis): 85% | pest or weed control at 62.5 g/ha (Digitaria sanguinalis; 504 h, DIGSA, 21 DAT, solo cinmethylin (EC 750 g/l) 62.5 gai/ha): 0% | pest or weed control at 125 g/ha (Digitaria sanguinalis; 504 h, DIGSA, 21 DAT, solo cinmethylin (EC 750 g/l) 125 gai/ha): 15% | pest or weed control at 250 g/ha (Digitaria sanguinalis; 504 h, DIGSA, 21 DAT, solo cinmethylin (EC 750 g/l) 250 gai/ha): 20% | pest or weed control at 62.5 g/ha (Stellaria media [8]; 504 h, read-out: % activity): 0% | pest or weed control at 125 g/ha (Stellaria media [8]; 504 h, read-out: % activity): 10%

CCCCCCCCSC(=O)Oc1cc(Cl)nnc1-c1ccccc1 [pyridate]
inhibition at 225 g/ha (Helianthus annuus; Helianthus annuus, 480 h, pyridate solo 225 gai/ha, 20 DAT, HELAN): 60% | inhibition at 450 g/ha (Helianthus annuus; Helianthus annuus, 480 h, pyridate solo 450 gai/ha, 20 DAT, HELAN): 70% | pest or weed control at 112.5 g/ha (Galium aparine; solo pyridate (WP 45%) 112.5 gai/ha): 40% | pest or weed control at 225 g/ha (Galium aparine; solo pyridate (WP 45%) 225 gai/ha): 85% | inhibition at 112.5 g/ha (Galium aparine; pyridate solo 112.5 gai/ha): 40% | inhibition at 225 g/ha (Galium aparine; pyridate solo 225 gai/ha): 85% | % activity (Apera spica-venti [4]; solo pyridate (WP 45%) 450 gai/ha): 0% | inhibition at 112.5 g/ha (Apera spica-venti [4]; Apera spica-venti, 480 h, pyridate solo 112.5 gai/ha): 0% | inhibition at 225 g/ha (Apera spica-venti [4]; Apera spica-venti, 480 h, pyridate solo 225 gai/ha): 0% | inhibition at 450 g/ha (Apera spica-venti [4]; Apera spica-venti, 480 h, pyridate solo 450 gai/ha): 0% | inhibition at 900 g/ha (Apera spica-venti [4]; Apera spica-venti, 480 h, pyridate solo 900 gai/ha): 30% | inhibition at 112.5 g/ha (Stellaria media [8]; 480 h, pyridate solo 112.5 gai/ha, 20 DAT, STEME): 25% | inhibition at 450 g/ha (Stellaria media [8]; 480 h, pyridate solo 450 gai/ha, 20 DAT, STEME): 55% | inhibition at 900 g/ha (Stellaria media [8]; 480 h, pyridate solo 900 gai/ha, 20 DAT, STEME): 70% | inhibition at 225 g/ha (Echinocloa crus-galli [5]; Echinochloa crus-galli, 480 h, pyridate solo 225 gai/ha, ECHCG): 30% | pest or weed control at 900 g/ha (Alopecurus myosuroides [7]; solo pyridate (WP 45%) 900 gai/ha): 20% | inhibition at 112.5 g/ha (Alopecurus myosuroides [7]; pyridate solo 112.5 gai/ha): 0% | inhibition at 225 g/ha (Alopecurus myosuroides [7]; pyridate solo 225 gai/ha): 0% | inhibition at 450 g/ha (Alopecurus myosuroides [7]; pyridate solo 450 gai/ha): 0% | inhibition at 900 g/ha (Alopecurus myosuroides [7]; pyridate solo 900 gai/ha): 20%

CC(C)N(C(=O)COc1nnc(C(F)(F)F)s1)c1ccc(F)cc1 [flufenacet]
inhibition at 15.6 g/ha (Stellaria media [1]; Stellaria media, 480 h, flufenacet SC 500 g/l solo 15.6 gai/ha): 0% | inhibition at 31.25 g/ha (Stellaria media [1]; Stellaria media, 480 h, flufenacet SC 500 g/l solo 31.25 gai/ha): 0% | inhibition at 62.5 g/ha (Stellaria media [1]; Stellaria media, 480 h, flufenacet SC 500 g/l solo 62.5 gai/ha): 0% | inhibition at 125 g/ha (Stellaria media [1]; Stellaria media, 480 h, flufenacet SC 500 g/l solo 125 gai/ha): 0% | inhibition at 125 g/ha (Helianthus annuus; Helianthus annuus, 480 h, 20 DAT, flufenacet solo 125 gai/ha): 30% | inhibition at 62.5 g/ha (Polygonum convolvulus; sc, flufenacet SC 500 g/l solo 62.5 gai/ha, read-out: % activity): 0% | inhibition at 125 g/ha (Polygonum convolvulus; sc, flufenacet SC 500 g/l solo 125 gai/ha, read-out: % activity): 0% | inhibition at 62.5 g/ha (Digitaria sanguinalis; 480 h, 20 DAT, flufenacet solo 62.5 gai/ha): 10% | inhibition at 125 g/ha (Digitaria sanguinalis; 480 h, 20 DAT, flufenacet solo 125 gai/ha): 20% | inhibition at 250 g/ha (Digitaria sanguinalis; 480 h, 20 DAT, flufenacet solo 250 gai/ha): 65% | inhibition at 31.25 g/ha (Echinocloa crus-galli [5]; Echinochloa crus-galli, 480 h, flufenacet solo 31.25 gai/ha): 25%
